Several values for one entry are separate records, joined by “and”; a condition that tells them apart may be missing. Identical values can stand only once.
Legend:
[1] = test system: CHO-K1 cells; test: cells; assay type: cell-based, Chinese hamster; details: for CHOK1 48 h EC10: Chinese hamster; for EC50: Cricetulus griseus, CHO-K1, 48 h, read-out: CHOK1 48 h EC50
Procedure: A cell growth assay using the MTS reagent was conducted to assess the general toxicity of each chalcone compound. Briefly, cell growth was assayed in sterile 96-well microtiter plates (Costar 3599, Corning Inc., Corning, NY, USA) in the presence of each chalcone. Experiments were conducted in triplicate. In a typical experiment, there are two plates. The first is the control plate, which allows one to assess the starting cell population on the day of drug addition (Day 0). The second plate is the test plate where cells are plated and tested with different drug concentrations on Day 0. For example, either CHO cells or Hs27 cells were plated in a 200 µL volume at 1000 cells/well on both the control and test plates and incubated overnight to allow the cells to adhere. On Day 0, 1 μL of PBS was added to the control plate wells so that their total volume was 201 μL. MTS reagent (Promega Cell Titer 96 Aqueous non-radioactive cell proliferation reagent, Promega, Madison, WI, USA) was added (20 μL) to each well on the control plate, and that plate was incubated for 4 h in a 5% CO2 atmosphere at 37 °C and then read on the plate reader.
On Day 0, 1 μL of a 200× stock solution of each chalcone was added to the respected well on the test plate, and each condition was tested in triplicate. Drug solutions were prepared in advance in 100% DMSO and dosed so that the final DMSO concentration was 0.5%. For example, 1 μL of chalcone solution was added to the cells plated in each well in 200 μL of media. Of note, the respective chalcone addition occurred after an initial overnight incubation of each cell line in each well to reach Day 0 (the drugging day). After the chalcone was added, the cells were incubated in 5% CO2 for 48 h at 37 °C. After 48 h, the MTS reagent (Promega, Madison, WI, USA) was added (20 μL), and the test plates were incubated for an additional 4 h, and then, absorbance at 490 nm was measured on a BioTek Synergy MX plate reader. […] IC50 values were determined from the corresponding plot of relative absorbance at 490 nm vs. the drug concentration.
For highly colored materials like the chalcones, it is important to consider the contribution of the compound’s own absorbance to the MTS assay. To correct for the absorbance contribution of the chalcone itself, we measured each chalcone’s absorbance (Chalcone Abs) at 490 nm at the respective concentration (e.g., 10 µM) and subtracted the absorbance of the media background (blank Abs). This net value was then subtracted out of the Day 2 absorbance value to provide the % relative growth via the following equation:(1) % Relative Growth = (Day 2 Abs−Day 2 blank Abs)−Chalcone Abs−blank Abs−(Day 0 Abs−Day 0 blank Abs)/(Day 2 Control Abs −Day 2 blank Abs)−(Day 0 Abs−Day 0 blank Abs) ×100%
With the chalcones in hand, we then evaluated their growth-inhibition properties in Chinese hamster ovary (CHO-K1) cells and human Hs27 fibroblast cells. […] The results are shown in Table 2 along with a SAR summary of our findings in the host Hs27 cells.

[2] = test system: Hs27 cells; test: Propidium iodide (PI) staining cytotoxicity in Hs27 cells by flow cytometry; assay type: cell-based; details: for PI+ cells: 10 µM, 24 h post-treatment, untreated control subtracted; for PI MTC: 24 h, concentration giving 10% PI+ cells, Hs27 cells, standard curve
Procedure: Chalcone treatments were performed in DMEM supplemented with 10% HI FBS at the indicated concentrations and for indicated periods of time. Chalcone stocks were reconstituted in 100% dimethyl sulfoxide (DMSO) at a concentration of 10 mM and were serially diluted to working concentrations in DMSO. DMSO control treatments to test the effect of the vehicle were performed at volumes corresponding to the volume of chalcone added during each experiment (i.e., 1 µL chalcone DMSO solution/1 mL DMEM [10 µM] utilized alongside the DMSO control of 1 µL/1 mL DMEM). For cytotoxicity assays, untreated controls were subtracted from DMSO and chalcone sample values to account for the background signal.
For cytotoxicity assays, cells were stained with propidium iodide (PI) at a dilution of 1:100. Cell viability was determined via flow cytometry using the CytoFLEX (Beckman Coulter, Brea, CA, USA). CytExpert software (Beckman Coulter, version 2.4) was used to analyze independent events. PIV5 infection was monitored using flow cytometry via the FITC channel by analyzing GFP expression of individual cells. ZIKV infection was monitored utilizing Flavivirus group antigen–antibody (D1-4G2-4-15; Novus Biologicals, Littleton, CO, USA) staining for the ZIKV envelope protein. Cells were fixed and permeabilized using eBioscience Intracellular Fixation and Permeabilization Buffer (Invitrogen, Thermo Fisher Scientific, MA, USA) according to the manufacturer’s instructions. Secondary staining was performed using an anti-Alexa Fluor 488 (AF488) antibody (Invitrogen, Thermo Fisher Scientific, MA, USA). OC43 infection was monitored utilizing a primary antibody targeted toward the OC43 nucleocapsid protein (NP, MAB9013, Sigma-Aldrich, St. Louis, MO, USA). Secondary staining was performed using an AF488 antibody. Cells were fixed and permeabilized as previously described. LACV infection was monitored utilizing an anti-LACV Gc 807.31ab antibody kindly provided by Andrew Pekosv. Secondary staining was performed using an AF488 antibody. Cells were fixed and permeabilized as previously described.
To determine the actual cytotoxic effects of select chalcones in the series, human fibroblast Hs27 cells were treated with DMSO as a control or treated with each selected chalcone at a concentration of 10 µM. At 24 h post-treatment (hpt), the Hs27 cells were stained with propidium iodide (PI), a stain for cells with permeable plasma membranes, and then processed for flow cytometry (see Figure 4). […] These cytotoxicity findings reflected the relative growth-inhibition properties of 8f, 8l, 8o, 8p, 8s, 8w, 8x, and 8z observed in Table 2 (see Hs27 cell data).
The GFP IC50 was defined as the concentration of chalcone required to inhibit the GFP expression (as measured via flow cytometry) by 50% when compared to DMSO-treated cells. […] To determine these PI MTCs, Hs27 cells were treated with each chalcone at various concentrations for 24 h and then analyzed via flow cytometry for positive PI staining. Untreated controls were subtracted to account for background staining. […] Immediately following infection, media were replaced with chalcone-supplemented media at specified concentrations. GFP expression was analyzed via flow cytometry at 24 hpi.

Compound | CHOK1 48 h EC10 [1] | EC50 [1] | PI+ cells [2] | PI MTC [2]
CCOc1ccc(Br)cc1/C=C/C(=O)c1c(O)cccc1OCc1ccc(-c2ccccc2)cc1 [Chalcone 8v, (2E)-1-[2-(Biphenyl-4-Ylmethoxy)-6-Hydroxy-Phenyl]3-(5-Bromo-2-Ethoxy-Phenyl)-Propenone] | 3.7 ± 0.3 µM | > 50 µM | – | –
COc1cc(/C=C/C(=O)c2c(O)cccc2OCc2ccccc2)cc(OC)c1OC [Chalcone 8z, (2E)-1-(2-Benzloxy-6-Hydroxy-Phenyl)-3-(3,4,5-Trimethoxy-Phenyl)-Propenone] | 3.8 ± 0.4 µM | 5.8 ± 0.4 µM | 40–60% | 2.4 µM
COc1ccc(Br)cc1/C=C/C(=O)c1c(O)cccc1OCc1ccc(-c2ccccc2)cc1 [Chalcone 8w, (2E)-1-[2-(Biphenyl-4-Ylmethoxy)-6-Hydroxy-Phenyl]3-(5-Bromo-2-Methoxy-Phenyl)-Propenone] | 6.8 ± 0.3 µM | 10.1 ± 1 µM | ~ 11% | 4.5 µM
COc1ccc(Br)cc1/C=C/C(=O)c1c(O)cccc1OC [Chalcone 8f] | 2.5 ± 0.1 µM | 6.1 ± 0.8 µM | 52.60% and 40–60% | 4.9 µM
COc1ccccc1/C=C/C(=O)c1ccccc1O [Chalcone 8a] | 9.3 ± 0.6 µM | 25.5 ± 2.7 µM | – | >15 µM
COc1ccc(Br)cc1/C=C/C(=O)c1c(O)cccc1OCc1ccccc1 [Chalcone 8l] | 5.2 ± 0.3 µM | 8.1 ± 1 µM | 40–60% and 57.7% | 7.0 µM
CCOc1ccc(Br)cc1/C=C/C(=O)c1c(O)cccc1OCc1ccccc1 [Chalcone 8o] | 7.0 ± 0.4 µM | 9.9 ± 0.7 µM | < 10% and 8.5% | 10.5 µM
COc1ccc(Br)cc1/C=C/C(=O)c1c(O)cccc1OCCC(C)C [Chalcone 8s, (2E)-3-(5-Bromo-2-Methoxy-Phenyl)-1-[2-Hydroxy-6-(3-Methyl-Butoxy)-Phenyl]-Propenone] | 5.4 ± 0.3 µM | 8.6 ± 0.3 µM | 40–60% | 3.5 µM
COc1ccc(O)cc1/C=C/C(=O)c1c(O)cccc1OCc1ccccc1 [Chalcone 8x, (2E)-1-(2-Benzloxy-6-Hydroxy-Phenyl)-5-(5-Hydroxy-2-Methoxy-Phenyl)-Propenone] | 3.8 ± 0.4 µM | 6.3 ± 0.3 µM | 40–60% | –
CCOc1ccc(Cl)cc1/C=C/C(=O)c1c(O)cccc1OCc1ccccc1 [Chalcone 8p] | 8.2 ± 0.3 µM | 25.8 ± 1.1 µM | < 10% | 8.4 µM

Source: article PMC12467382, “Synthesis and Bioevaluation of Chalcones as Broad-Spectrum Antiviral Compounds Against Single-Stranded RNA Viruses” (Biomolecules, 2025)
